Experimental data: patent publication US20230158116A1, “USE OF HUMAN AMYLIN ANALOG POLYPEPTIDES FOR PROVIDING SUPERIOR GLYCEMIC CONTROL TO TYPE 1 DIABETICS” (I2O Therapeutics, Inc., priority 2020, published 2023)
Where two headings read alike, the source gives them in different places. Starred links: 1 amine or outer side, 2 acyl side, 3 side chain; linkers in the order of their positions; H or OH if unused. Positions of bridges follow the written chain, without caps; N, C: chain ends. Residues, ends and D or L forms follow the SMILES beside them. Groups on a side chain read outwards from the residue. No end group written: not given here. *: point of attachment. C20 diacid = O=C(O)CCCCCCCCCCCCCCCCCCC(=O)*; γGlu = O=C(O)[C@H](CCC(=O)[*:2])N[*:1]

Columns and labels:
[1] = cited from earlier work
[2] = in vivo; cited from earlier work
[3] = Half-life of compound A2 in the rat; details: in vivo, read-out: 0% of compound A2 (half-life)
Method: (§1) Following at least 1 week of insulin dose stabilization, animals are entered into each of 5 supplemental treatments comprising administration of the long-acting amylin agonist, compound A2, at doses of 1, 3, 10, 30 or 100 μg/day as a single daily injection, in addition to the fixed daily Levemir dose. (Alternatively, these studies could utilize relatively short-acting pramlintide as an amylin analog.) The […] is 32-37 hours in the rat, similar to that of albumin-bound insulin detemir. Daily dosing of each therefore maintains relatively constant concentrations of each, and a relatively ratio of concentrations.

[4] = cited from earlier work; remark: listed apart in the source
[5] = assay type: in vivo, rat (male Wistar); parameters: hypo avoidance index (benefit index; below 70 mg/dL weighted 5× vs over 180 mg/dL): scale not given here; hazard index: time above 180 mg/dL (hyperglycemic) / benefit index: time in range (above 70, below 180 mg/dL): unit not given here; details: for benefit index: time in range (above 70, below 180 mg/dL) / hazard index: time above 180 mg/dL (hyperglycemic) / hypo avoidance index (benefit index; below 70 mg/dL weighted 5× vs over 180 mg/dL): STZ rat, A2 0 μg/kg/day
From the text: Male Wistar rats are implanted intraperitoneally (sensor in abdominal aorta) with an HD-XG continuous glucose monitor (Data Sciences, St Paul, Minn.) (Brockway, Tiesma et al. 2015). This system allows up to 8 weeks of continuous capture of blood glucose concentrations.
Upon recovery from surgery and resumption of normal food intake, capture of glucose readings begins so as to include at least 4 days of non-diabetic record for each rat. To induce insulinopenic (type 1) diabetes, rats are fasted overnight and administered an intravenous dose of streptozotocin (STZ) of 60 mg/kg (Gajdosik, Gajdosikova et al. 1999). Glucose readings from the telemetry system are used to enhance survival post-STZ, by s.c. glucose supplementation in the event of hypoglycemia that often accompanies an initial release of insulin following β-cell toxicity. The telemetry is then used to affirm hyperglycemia (mean plasma glucose >300 mg/dL), and to determine if a second STZ treatment is necessary for rats that are not sufficiently hyperglycemic.
Upon becoming hyperglycemic, animals are treated daily with a sliding-scale of a long-acting insulin (insulin detemir, Levemir NOVO) so as to eliminate urinary ketones, but maintain 5% glycosuria, as determined by daily KETOSTIX and GLUCOSTIX testing, respectively (Young, Crocker et al. 1991).
Animals are assigned to one of 3 cohorts of insulin dosing (n=5/cohort). One cohort is defined as that necessary to attain −ve urinary ketones and +ve urinary glucose, as just described, but not greater than a total dose of 2 U/day. A second cohort is a high insulin dose cohort, 3× greater than cohort 1. A third cohort is one where insulin dose is 50% of that of cohort 1.
as §1
Each dose level of compound A2 is maintained for 1 week, during which glucose data is captured via telemetry. The order in which doses of compound A2 are changed is determined by a 5×5 orthogonal latin square. That is, each animal receives each dose of compound A2, but in an order that is unique relative to that of the other 4 animals in the same insulin cohort. This treatment balances out time-dependent or order-dependent changes in metabolic status of each animal, such as regeneration of insulin secretory capacity, and accommodation to the effects of an amylin agonist.
Plasma glucose values from the final 4 days of each insulin/A2 combination are aggregated and analyzed according to frequency of occurrence (cumulative distributions). Analogous to the time-in-range (TIR) assessment of clinical benefit (sometimes termed “clinical utility”) in human diabetes trials (Beck, Bergenstal et al. 2018), glucose values are categorized within bins (<70, 70-180, and >180 mg/dL). Further cuts (>250 mg/dL) are also made. Parametric descriptors of glucose values are also derived for each combination (mean and SD values, linear and logarithmic, where data are not normal but are log-normal).
Higher benefit (i.e., utility) is indicated when TIR is greatest, with the proviso that values below 70 mg/dL are not more frequent. Higher benefit is also indicated when the SD for the distribution of glucose values is least.

| Molecule | Onset ([1]; in vivo) | Peak ([1]; in vivo) | Duration ([1]; in vivo) | other results |
| --- | --- | --- | --- | --- |
| glulisine [Sanofi's Apidra ® (glulisine)] | 20 to 30 min | 0.5 to 1.5 h | – | – |
| lispro [Lilly's Humalog ® (lispro)] | 15 to 30 min | 0.5 to 1.5 h | 3 to 5 h | – |
| Davalintide | – | – | – | half-life [2]: about 26 minutes |
| aspart [Novo's Novolog ® (aspart)] | 10 to 20 min | 0.667 to 0.833 h | 3 to 5 h | – |
| recombinant insulin [Novo's Novolin ® (recombinant insulin)] | – | 2 to 5 h | 5 to 8 h | – |
| CC[C@H](C)[C@H](NC(=O)[C@@H]1CCCN1C(=O)CNC(=O)[C@H](Cc1ccccc1)NC(=O)[C@H](CC(N)=O)NC(=O)[C@H](CC(N)=O)NC(=O)[C@H](CO)NC(=O)[C@H](CO)NC(=O)[C@H](CCCCN)NC(=O)[C@H](Cc1c[nH]cn1)NC(=O)[C@H](CC(C)C)NC(=O)[C@H](CCC(=O)O)NC(=O)[C@H](CC(N)=O)NC(=O)[C@H](C)NC(=O)[C@H](CC(C)C)NC(=O)[C@H](CCCNC(=N)N)NC(=O)[C@H](CCC(N)=O)NC(=O)[C@@H](NC(=O)[C@H](C)NC(=O)[C@@H]1CSSC[C@H](NC(=O)[C@@H](N)CCCCNC(=O)CC[C@H](NC(=O)CC[C@H](NC(=O)CCCCCCCCCCCCCCCCCCC(=O)O)C(=O)O)C(=O)O)C(=O)N[C@@H](CC(N)=O)C(=O)N[C@@H]([C@@H](C)O)C(=O)N[C@@H](CO)C(=O)N[C@@H]([C@@H](C)O)C(=O)N1)[C@@H](C)O)C(=O)N[C@@H](CC(C)C)C(=O)N1CCC[C@H]1C(=O)N1CCC[C@H]1C(=O)N[C@H](C(=O)N[C@@H](CCCCN)C(=O)N[C@H](C(=O)NCC(=O)N[C@@H](CO)C(=O)N[C@@H](CCC(=O)O)C(=O)N[C@H](C(=O)N[C@@H](Cc1ccc(O)cc1)C(N)=O)[C@@H](C)O)C(C)C)[C@@H](C)O [Compound A2] (H-K([γGlu-γGlu-C20 diacid])CNTSTCATQRLANELHKSSNNFGPILPPTKVGSETY-NH2; disulfide 2-7) | – | – | – | half-life [3]: 32 to 37 h |
| human amylin: 37-residue polypeptide hormone co-secreted with insulin from pancreatic β-cells (SEQ ID NO: 5) (KCNTATCATQRLANFLVHSSNNFGAILSSTNVGSNTY; disulfide 2-7; listed as Homo sapiens) | – | – | – | half-life ([4]; in humans): about 13 minutes; half-life in serum ([4]; serum): about 13 minutes |
| insulin degludec [Novo's Tresiba ® (insulin degludec)] | 30 to 90 min | – | 42 h | Peak ([1]; result in words): No peak time |
| insulin glargine | – | – | 20 to 24 h | Peak ([1]; result in words): No peak time. |
| aspart [Fiasp ® (aspart)] | – | 1 to 3 h | 3 to 5 h | Onset, sooner than Rapid Acting Insulins ([1]; relative to rapid-acting insulins): about 5 mins |
| velosulin: human insulin for use in an insulin pump, short-acting | – | 1 to 2 h | 2 to 3 h | – |
| insulin detemir [Novo's Levemir ® (insulin detemir)] | 60 to 120 min | 6 to 8 h | Up to 24 hours | benefit index: time in range (above 70, below 180 mg/dL) ([5]; insulin 1 U/day): 39.5; hazard index: time above 180 mg/dL (hyperglycemic) ([5]; insulin 1 U/day): 60.2; hypo avoidance index (benefit index; below 70 mg/dL weighted 5× vs over 180 mg/dL) ([5]; insulin 1 U/day): 33.8; benefit index: time in range (above 70, below 180 mg/dL) ([5]; insulin 2 U/day): 64.9; hazard index: time above 180 mg/dL (hyperglycemic) ([5]; insulin 2 U/day): 29.4; hypo avoidance index (benefit index; below 70 mg/dL weighted 5× vs over 180 mg/dL) ([5]; insulin 2 U/day): 41.6; benefit index: time in range (above 70, below 180 mg/dL) ([5]; insulin 6 U/day): 78.9; hazard index: time above 180 mg/dL (hyperglycemic) ([5]; insulin 6 U/day): 2.8; hypo avoidance index (benefit index; below 70 mg/dL weighted 5× vs over 180 mg/dL) ([5]; insulin 6 U/day): 5.7; blood glucose values within range 70-180 mg/dL (TIR) ([5]; post-STZ rats, 2 U/day Levemir, no A2): 64.9%; blood glucose values <70 mg/dL ([5]; rat, in vivo): 5.8%; proportion of time spent below 70 mg/dL ([5]; rat, in vivo): markedly increase |
